Measured values from paper PMC8280143, “A novel dephosphorylation targeting chimera selectively promoting tau removal in tauopathies” (Signal Transduction and Targeted Therapy, 2021).
No end group written: not given here. *: point of attachment. FITC = O=C1OC2(c3ccc(O)cc3Oc3cc(O)ccc32)c2ccc(NC(=S)*)cc21

Tests used:
[1] = test system: glycogen synthase kinase-3; details: cited from earlier work
Text: (§1) By contrast, small-molecular kinase inhibitors or phosphatase enhancers generally lack specificity. […] This might bring unacceptable side-effects in the clinic. Importantly, the principle of DEPTAC can be used in future studies to design alternative chimeras specifically targeting many other types of post-tr ...

inositol monophosphatase = details: cited from earlier work
Text: as §1

tau = details: cited from earlier work
Text: as §1

PP2A-Bα (PPP2R1A) = experiment: Fluorescence polarization binding assay, PP2A-Bα; set-up: species or system human; details: 0.1 μM FITC-labeled DEPTAC; serial dilutions of PP2A-Bα; 20 mM Tris-HCl, 150 mM NaCl, 0.5 mM DTT, pH 7.4; 37 °C, 30 min
Protocol: (§2) Purified human tau and PP2A-Bα (PPP2R1A) were obtained from AtaGenix (Wuhan, China), and concentrated using ultrafiltration tubes (Beyotime). In basic binding assays, tau or PP2A-Bα was aliquoted into serial dilutions with a buffer containing 20 mM Tris-HCl, 150 mM NaCl, and 0.5 mM 1,4-Dithiothreitol (pH 7.4), and incubated with 0.1 μM FITC-labeled DEPTAC, FITC-labeled control peptide and FITC (9:1 vol/vol), respectively, in a black 384-well plates (Corning) under 37 °C for 30 min. In competition binding assays, a mixture of 2.5 μM tau or PP2A-Bα and 0.1 μM FITC-labeled DEPTAC were incubated with increasing amounts of unlabeled-DEPTAC under 37 °C for 30 min. Fluorescence intensity was measured by a Biotek Synergy 2 microplate reader with the wavelengths of 480 nm (60) (Ex)/560 nm (40) (Em). The polarization measurements were corrected for background contributions to the measured intensity by subtracting the parallel and perpendicular intensity readings by the vehicle-only wells from the intensity readings for each data point. Fluorescence polarization (P) was calculated by the formula P = (I║ − I┴) / (I║ + I┴), where I║ was the intensity of emitted light polarized parallel to the excitation light, and I┴ was the intensity of emitted light polarized perpendicular to the excitation light.

human tau = experiment: Fluorescence polarization binding assay, tau; details: 0.1 μM FITC-labeled DEPTAC; serial dilutions of tau; 20 mM Tris-HCl, 150 mM NaCl, 0.5 mM DTT, pH 7.4; 37 °C, 30 min
Protocol: as §2

Molecule	action on glycogen synthase kinase-3 [1]	action on inositol monophosphatase (inositol monophosphatase)	suppression of tau hyperphosphorylation (tau)	FITC-DEPTAC fluorescence polarization with increased amount of PP2A-Bα (PP2A-Bα (PPP2R1A))	FITC-DEPTAC fluorescence polarization with increased amount of tau (human tau)
[Li] [lithium]	acts on other targets	acts on other targets	suppress tau hyperphosphorylation	–	–
FITC-DEPTAC: For tracing the chimera, a fluorescein FITC was conjugated at the K18 residue (YQQYQDATADEQGGSGSK(FITC)KVAVVRTPPKSPRRRRRRRR)	–	–	–	sigmoidal increases	sigmoidal increases
